Experiments:
[1] = system: 11β-HSD1; assay: expression of 11β-HSD1 in osteoblasts of treated mice; settings: mouse, in vivo
[2] = system: passive collagen-induced arthritis; assay: passive collagen induced arthritis (anti-type II collagen antibodies); assay type: in vivo, DBA/1 mice; settings: 40 mg/kg/day oral gavage
Excerpt: The capacity of formula 1 compounds to affect the course of arthritis in a passive collagen induced arthritis model of arthritis was examined essentially as previously described (E. Simelyte et al., Arthritis & Rheumatism, 52(6):1876-1884, 2005; Z. Han et al. Arthritis & Rheumatism 46(3):818-823, 2002; H. Miyahara et al., Clin. Immunol. Immunopathol., 69(1):69-76 1993). In this protocol, passive collagen-induced arthritis was induced in DBA/1 mice by administering anti-type II collagen antibodies, which induced an immune response against joint tissue in the animals. […] The severity of arthritis was assessed using a semiquantitative clinical scoring system. Groups of 8 animals per group were treated with 17α-ethynylandrost-5-ene-3β,7β,17β-triol at 40 mg/kg/day for 14 days or vehicle for 14 days by oral gavage. The vehicle was 30% cyclodextrin-sulfobutylether in water and the drug solution was vehicle with drug at 20 mg/mL.
The animals were examined by measuring ankle thickness and arthritis score (4-point/paw) with a higher score indicating a more severe arthritis. The experiment was terminated after about 14 days, and histology and gene expression measurements were performed. […] A semi-quantitative scoring system was used to access synovial inflammation, extraarticular inflammation, erosion and proteogylcan loss. […]

[3] = system: insulin sensitivity in db/db diabetic mice; assay: hyperinsulinemic-euglycemic clamp; assay type: in vivo; settings: oral gavage 14 days; insulin 10 mU/kg/min
Experimental: Glucose lowering in 8 week old db/db diabetic mice. The hyperinsulinemic-euglycemic clamp protocol was conducted to measure insulin sensitivity in vivo. In this procedure, insulin was administered to raise the insulin concentration while glucose was infused to maintain euglycemia or a fixed, normal blood glucose level (about 180 mg/dL). […] The objective of this protocol was to investigate characterize the capacity of 17α-ethynylandrost-5-ene-3β,7β,17β-triol and androst-5-ene-3β,7β,16α,17β-tetrol to ameliorate systemic insulin resistance and improve whole body glucose disposal in the hyperinsulinemic-euglycemic clamp model. The degree of skeletal muscle and hepatic insulin sensitivity and tissue specific glucose uptake were also assessed. The animals were dosed daily by oral gavage for 14 days. On Day 10 of treatment catheters were implanted in the carotid artery and jugular vein. On the day of the clamp (day 14) the compound was administered at 7:30 am.
Body weight and glucose concentration were assessed on day 0, 7 and day 14 of treatment. On day 14 a euglycemic hyperinsulinemic clamp was performed. Food was removed at 7:30 am at 10:30 a primed continuous infusion of [3-^3H]-glucose (0.05 μCi/min). A baseline blood sample was taken at 12:50 (−10 min) and at 1:00 (0 min) a euglycemic hyperinsulinemic clamp was initiated by administering 10 mU /kg/min of insulin. Glucose was infused at a variable rate to clamp the glucose concentration at ˜180 mg/dl. A bolus of [^14C]-2deoxyglucose was given at the end of the study to assess tissue specific glucose uptake. Plasma ^14C 2-deoxyglucose was assessed at 122, 125, 130, 135, 145 min. […]
Analysis was conducted as follows. Plasma samples were deproteinized with Ba(OH)2 (0.3 N) and ZnSO4 (0.3 N), dried and radioactivity was assessed on scintillation counter (Packard TRICARB 2900 TR, Meriden, Conn.). […] One supernatant was directly counted to determine radioactivity from both [14C] […] A second aliquot was treated with Ba(OH)2 and ZnSO4 to remove ^14C DGP and any tracer incorporated into glycogen and then counted to determine radioactivity from free [^14C]DG(2). [^14C]DGP was calculated as the difference between the two aliquots. […] Rg, an index of tissue specific glucose uptake was calculated as previously described (E.W. Kraegen et al., Am. J. Physiol., 248:E353-E362, 1985). Whole body glucose turnover was calculated as the ratio of the ^3H glucose infusion rate (dpm/kg/min) and arterial plasma glucose specific activity (dpm/mg). Endogenous glucose production was calculated as the difference between the whole body glucose turnover and the exogenous glucose infusion rate (R. N. Bergman et al., Endocr. Rev., 6:45-86, 1985).

C#C[C@]1(O)CC[C@H]2[C@@H]3[C@@H](O)C=C4C[C@@H](O)CC[C@]4(C)[C@H]3CC[C@@]21C [17α-ethynylandrost-5-ene-3β,7β,17β-triol]
decrease of expression of 11β-HSD1 in osteoblasts [1]: about 50% | maximum clinical score ([2]; day 7): 5.1 | clinical score at day 14 ([2]; end of protocol): 4.1 | glucose infusion rate compared to vehicle control [3]: increased the glucose infusion rate

From patent US20080221074A1, “Drug Screen and Treatment Method” (priority 2006, published 2008)
